Test results reported in patent US9902702B2, “Spirocycloheptanes as inhibitors of rock” (BRISTOL-MYERS SQUIBB COMPANY, priority 2014, dated 2018).
pIC50: −log10 of the molar value.

molecular target: ROCK2 (Homo sapiens, UniProt O75116); test: ROCK assay: phosphorylation of FITC peptide substrate, LABCHIP 3000 mobility shift; assay type: biochemical; details: 5 μM ATP, 1.5 μM peptide substrate; read-out: ROCK2 Activity (ROCK IC50 range)
In short: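 IC50 values come from curve-fitting percent kinase inhibition across a compound dilution series. The reaction is started with Rho kinase variant in HEPES pH 7.5 buffer with MgCl2, Brij-35 and DTT, with 5 μM ATP, 1.5 μM FITC-labelled peptide and under 2% DMSO. After EDTA quench, product and substrate are separated by microfluidic mobility shift.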

ROCK2, sequence (O75116 whole entry, species assumed): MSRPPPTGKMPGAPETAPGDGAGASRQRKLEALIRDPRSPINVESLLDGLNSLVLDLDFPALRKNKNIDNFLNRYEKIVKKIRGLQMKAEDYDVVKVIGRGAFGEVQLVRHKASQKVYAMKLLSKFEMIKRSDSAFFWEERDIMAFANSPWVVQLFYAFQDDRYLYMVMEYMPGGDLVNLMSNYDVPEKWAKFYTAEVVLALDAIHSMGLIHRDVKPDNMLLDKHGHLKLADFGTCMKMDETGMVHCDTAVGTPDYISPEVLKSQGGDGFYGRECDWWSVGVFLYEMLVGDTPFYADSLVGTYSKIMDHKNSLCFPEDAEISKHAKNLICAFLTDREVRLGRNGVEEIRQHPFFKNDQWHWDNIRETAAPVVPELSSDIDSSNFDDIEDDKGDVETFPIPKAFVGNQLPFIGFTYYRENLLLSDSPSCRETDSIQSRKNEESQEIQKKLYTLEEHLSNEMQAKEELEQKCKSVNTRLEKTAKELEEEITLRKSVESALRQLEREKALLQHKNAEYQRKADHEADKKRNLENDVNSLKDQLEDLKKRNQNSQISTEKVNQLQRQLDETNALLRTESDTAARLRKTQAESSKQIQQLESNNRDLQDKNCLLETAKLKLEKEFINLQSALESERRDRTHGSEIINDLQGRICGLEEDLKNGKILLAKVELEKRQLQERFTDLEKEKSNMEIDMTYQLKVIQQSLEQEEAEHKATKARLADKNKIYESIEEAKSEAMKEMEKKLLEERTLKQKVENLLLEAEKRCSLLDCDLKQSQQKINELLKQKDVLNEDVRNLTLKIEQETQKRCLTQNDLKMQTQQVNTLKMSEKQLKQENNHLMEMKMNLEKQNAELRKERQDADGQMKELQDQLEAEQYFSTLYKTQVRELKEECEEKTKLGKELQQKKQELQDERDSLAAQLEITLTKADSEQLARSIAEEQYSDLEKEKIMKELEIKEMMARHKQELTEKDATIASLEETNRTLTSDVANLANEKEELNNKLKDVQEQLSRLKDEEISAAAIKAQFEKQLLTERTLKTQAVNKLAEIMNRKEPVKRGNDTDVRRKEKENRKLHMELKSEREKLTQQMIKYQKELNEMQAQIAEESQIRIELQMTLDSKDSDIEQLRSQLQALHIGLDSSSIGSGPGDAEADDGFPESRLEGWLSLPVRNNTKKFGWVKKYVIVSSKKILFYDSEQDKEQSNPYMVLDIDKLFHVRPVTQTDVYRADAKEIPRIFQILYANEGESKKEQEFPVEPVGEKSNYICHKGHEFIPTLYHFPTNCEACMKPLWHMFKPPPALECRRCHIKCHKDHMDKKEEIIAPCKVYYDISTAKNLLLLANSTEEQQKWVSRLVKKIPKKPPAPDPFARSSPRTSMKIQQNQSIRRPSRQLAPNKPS

Structure (SMILES)	pIC50
O=C(N[C@H]1CC2(C1)C[C@H](c1n[nH]c(=O)c3ccccc31)C2)c1cnn2cc(CCC(O)(C(F)(F)F)C(F)(F)F)ccc12 (stereo partly drawn) [Example 199, N-((aR)-6-(4-oxo-3,4-dihydrophthalazin-1-yl)spiro[3.3]heptan-2-yl)-6-(4,4,4-trifluoro-3-hydroxy-3-(trifluoromethyl)butyl)pyrazolo[1,5-a]pyridine-3-carboxamide]	8.30 to 8.70
O=C(N[C@H]1CC2(C1)C[C@H](c1n[nH]c(=O)c3ccccc31)C2)c1cnn2cc(CN3CCOCC3)ccc12 (stereo partly drawn) [Example 200, 6-(morpholinomethyl)-N-((aR)-6-(4-oxo-3,4-dihydrophthalazin-1-yl)spiro[3.3]heptan-2-yl)pyrazolo[1,5-a]pyridine-3-carboxamide]	7.82 to 8.29
CN1CCN(Cc2ccc3c(C(=O)NC4CC5(C4)CC(c4n[nH]c(=O)c6ccccc46)C5)cnn3c2)CC1 [Example 201, 6-((4-methylpiperazin-1-yl)methyl)-N-((aR)-6-(4-oxo-3,4-dihydrophthalazin-1-yl)spiro[3.3]heptan-2-yl)pyrazolo[1,5-a]pyridine-3-carboxamide]	8.30 to 8.70
O=C(NC1CC2(C1)CC(c1n[nH]c(=O)c3ccccc13)C2)c1cnn2cc(CN3CCCCC3)ccc12 [Example 202, N-((aR)-6-(4-oxo-3,4-dihydrophthalazin-1-yl)spiro[3.3]heptan-2-yl)-6-(piperidin-1-ylmethyl)pyrazolo[1,5-a]pyridine-3-carboxamide]	7.82 to 8.29
CN(C)Cc1ccc2c(C(=O)NC3CC4(C3)CC(c3n[nH]c(=O)c5ccccc35)C4)cnn2c1 [Example 203, 6-((dimethylamino)methyl)-N-((aR)-6-(4-oxo-3,4-dihydrophthalazin-1-yl)spiro[3.3]heptan-2-yl)pyrazolo[1,5-a]pyridine-3-carboxamide]	7.82 to 8.29
O=C(NC1CC2(C1)CC(c1n[nH]c(=O)c3ccccc13)C2)c1cnn2cc(Cc3ccccc3)ccc12 [Example 204, 6-benzyl-N-((aR)-6-(4-oxo-3,4-dihydrophthalazin-1-yl)spiro[3.3]heptan-2-yl)pyrazolo[1,5-a]pyridine-3-carboxamide]	8.70 to 9.70
O=C(NC1CC2(C1)CC(c1n[nH]c(=O)c3ccccc13)C2)c1cnn2cc(CCC(=O)N3CCOCC3)ccc12 [Example 205, 6-(3-morpholino-3-oxopropyl)-N-((aR)-6-(4-oxo-3,4-dihydrophthalazin-1-yl)spiro[3.3]heptan-2-yl)pyrazolo[1,5-a]pyridine-3-carboxamide]	8.30 to 8.70
O=C(NC1CC2(C1)CC(c1n[nH]c(=O)c3ccccc13)C2)c1cnn2cc(CCC(F)(F)F)ccc12 [Example 206, N-((aR)-6-(4-oxo-3,4-dihydrophthalazin-1-yl)spiro[3.3]heptan-2-yl)-6-(3,3,3-trifluoropropyl)pyrazolo[1,5-a]pyridine-3-carboxamide]	8.70 to 9.70
N#CCCc1ccc2c(C(=O)NC3CC4(C3)CC(c3n[nH]c(=O)c5ccccc35)C4)cnn2c1 [Example 207, 6-(2-cyanoethyl)-N-((aR)-6-(4-oxo-3,4-dihydrophthalazin-1-yl)spiro[3.3]heptan-2-yl)pyrazolo[1,5-a]pyridine-3-carboxamide]	8.30 to 8.70
O=C(NC1CC2(C1)CC(c1n[nH]c(=O)c3ccccc13)C2)c1cnn2cc(COCCN3CCOCC3)ccc12 [Example 208, 6-((2-morpholinoethoxy)methyl)-N-((aR)-6-(4-oxo-3,4-dihydrophthalazin-1-yl)spiro[3.3]heptan-2-yl)pyrazolo[1,5-a]pyridine-3-carboxamide]	8.30 to 8.70
COCc1ccc2c(C(=O)NC3CC4(C3)CC(c3n[nH]c(=O)c5ccccc35)C4)cnn2c1 [Example 209, 6-(methoxymethyl)-N-((aR)-6-(4-oxo-3,4-dihydrophthalazin-1-yl)spiro[3.3]heptan-2-yl)pyrazolo[1,5-a]pyridine-3-carboxamide]	7.82 to 8.29
COc1ncc(-c2ccc3c(C(=O)NC4CC5(C4)CC(c4n[nH]c(=O)c6ccccc46)C5)cnn3c2)cn1 [Example 210, 6-(2-methoxypyrimidin-5-yl)-N-((aR)-6-(4-oxo-3,4-dihydrophthalazin-1-yl)spiro[3.3]heptan-2-yl)pyrazolo[1,5-a]pyridine-3-carboxamide]	8.30 to 8.70
O=C(NC1CC2(C1)CC(c1n[nH]c(=O)c3ccccc13)C2)c1cnn2cc(COCC3CCOCC3)ccc12 [Example 211, N-((aR)-6-(4-oxo-3,4-dihydrophthalazin-1-yl)spiro[3.3]heptan-2-yl)-6-(((tetrahydro-2H-pyran-4-yl)methoxy)methyl)pyrazolo[1,5-a]pyridine-3-carboxamide]	8.30 to 8.70
[H][C@]1(c2n[nH]c(=O)c3ccccc32)C[C@]2(C[C@@H](NC(=O)c3cnn4cc(COCC=C)ccc34)C2)C1 (stereo partly drawn) [Example 212, 6-((allyloxy)methyl)-N-((aR)-6-(4-oxo-3,4-dihydrophthalazin-1-yl)spiro[3.3]heptan-2-yl)pyrazolo[1,5-a]pyridine-3-carboxamide]	8.70 to 9.70
O=C(N[C@H]1CC2(C1)C[C@H](c1n[nH]c(=O)c3ccccc31)C2)c1cnn2cc(CO)ccc12 (stereo partly drawn) [Example 213, 6-(hydroxymethyl)-N-((aR)-6-(4-oxo-3,4-dihydrophthalazin-1-yl)spiro[3.3]heptan-2-yl)pyrazolo[1,5-a]pyridine-3-carboxamide]	7.82 to 8.29
CC(=O)c1ccc2c(C(=O)N[C@H]3CC4(C3)C[C@H](c3n[nH]c(=O)c5ccccc53)C4)cnn2c1 (stereo partly drawn) [Example 214, 6-acetyl-N-((aR)-6-(4-oxo-3,4-dihydrophthalazin-1-yl)spiro[3.3]heptan-2-yl)pyrazolo[1,5-a]pyridine-3-carboxamide]	8.30 to 8.70
CC(C)(O)c1ccc2c(C(=O)N[C@H]3CC4(C3)C[C@H](c3n[nH]c(=O)c5ccccc53)C4)cnn2c1 (stereo partly drawn) [Example 215, 6-(2-hydroxypropan-2-yl)-N-((aR)-6-(4-oxo-3,4-dihydrophthalazin-1-yl)spiro[3.3]heptan-2-yl)pyrazolo[1,5-a]pyridine-3-carboxamide]	7.82 to 8.29
Cc1c(-c2ccc3c(C(=O)N[C@H]4CC5(C4)C[C@H](c4n[nH]c(=O)c6ccccc64)C5)cnn3c2)cnn1C (stereo partly drawn) [Example 216, 6-(1,5-dimethyl-1H-pyrazol-4-yl)-N-((aR)-6-(4-oxo-3,4-dihydrophthalazin-1-yl)spiro[3.3]heptan-2-yl)pyrazolo[1,5-a]pyridine-3-carboxamide]	8.70 to 9.70
O=C(NC1CC2(C1)CC(c1n[nH]c(=O)c3ccccc13)C2)c1cnn2cc(-c3cnn(C4CC4)c3)ccc12 [Example 217, 6-(1-cyclopropyl-1H-pyrazol-4-yl)-N-((aR)-6-(4-oxo-3,4-dihydrophthalazin-1-yl)spiro[3.3]heptan-2-yl)pyrazolo[1,5-a]pyridine-3-carboxamide]	8.70 to 9.70
O=C(NC1CC2(C1)CC(c1n[nH]c(=O)c3ccccc13)C2)c1cnn2cc(-c3cnn(CC4CC4)c3)ccc12 [Example 218, 6-(1-(cyclopropylmethyl)-1H-pyrazol-4-yl)-N-((aR)-6-(4-oxo-3,4-dihydrophthalazin-1-yl)spiro[3.3]heptan-2-yl)pyrazolo[1,5-a]pyridine-3-carboxamide]	8.70 to 9.70
[2H]C([2H])([2H])n1cc(-c2ccc3c(C(=O)NC4CC5(C4)CC(c4n[nH]c(=O)c6ccccc46)C5)cnn3c2)cn1 (stereo not shown) [Example 219]	8.70 to 9.70
CC(C)n1cc(-c2ccc3c(C(=O)NC4CC5(C4)CC(c4n[nH]c(=O)c6ccccc46)C5)cnn3c2)cn1 [Example 220, 6-(1-isopropyl-1H-pyrazol-4-yl)-N-((aR)-6-(4-oxo-3,4-dihydrophthalazin-1-yl)spiro[3.3]heptan-2-yl)pyrazolo[1,5-a]pyridine-3-carboxamide]	8.70 to 9.70
Cc1nn(C)c(C)c1-c1ccc2c(C(=O)NC3CC4(C3)CC(c3n[nH]c(=O)c5ccccc35)C4)cnn2c1 [Example 221, N-((aR)-6-(4-oxo-3,4-dihydrophthalazin-1-yl)spiro[3.3]heptan-2-yl)-6-(1,3,5-trimethyl-1H-pyrazol-4-yl)pyrazolo[1,5-a]pyridine-3-carboxamide]	8.70 to 9.70
O=C(NC1CC2(C1)CC(c1n[nH]c(=O)c3ccccc13)C2)c1cnn2cc(-c3cnn(C4CCOCC4)c3)ccc12 [Example 222, N-((aR)-6-(4-oxo-3,4-dihydrophthalazin-1-yl)spiro[3.3]heptan-2-yl)-6-(1-(tetrahydro-2H-pyran-4-yl)-1H-pyrazol-4-yl)pyrazolo[1,5-a]pyridine-3-carboxamide]	8.70 to 9.70
Cn1cc(-c2ccc3c(C(=O)NC4CC5(C4)CC(c4n[nH]c(=O)c6ccccc46)C5)cnn3c2)c(C(F)(F)F)n1 [Example 223, 6-(1-methyl-3-(trifluoromethyl)-1H-pyrazol-4-yl)-N-((aR)-6-(4-oxo-3,4-dihydrophthalazin-1-yl)spiro[3.3]heptan-2-yl)pyrazolo[1,5-a]pyridine-3-carboxamide]	8.70 to 9.70
CC(C)n1cc(-c2ccc3c(C(=O)NC4CC5(C4)CC(c4n[nH]c(=O)c6ccccc46)C5)cnn3c2)c(C(F)(F)F)n1 [Example 224, 6-(1-isopropyl-3-(trifluoromethyl)-1H-pyrazol-4-yl)-N-((aR)-6-(4-oxo-3,4-dihydrophthalazin-1-yl)spiro[3.3]heptan-2-yl)pyrazolo[1,5-a]pyridine-3-carboxamide]	8.70 to 9.70
CC(C)(C)n1cc(-c2ccc3c(C(=O)NC4CC5(C4)CC(c4n[nH]c(=O)c6ccccc46)C5)cnn3c2)cn1 [Example 225, 6-(1-(tert-butyl)-1H-pyrazol-4-yl)-N-((aR)-6-(4-oxo-3,4-dihydrophthalazin-1-yl)spiro[3.3]heptan-2-yl)pyrazolo[1,5-a]pyridine-3-carboxamide]	8.70 to 9.70
O=C(NC1CC2(C1)CC(c1n[nH]c(=O)c3ccccc13)C2)c1cnn2cc(-c3cnn(C4CCOC4)c3)ccc12 [Example 226, N-((aR)-6-(4-oxo-3,4-dihydrophthalazin-1-yl)spiro[3.3]heptan-2-yl)-6-(1-(tetrahydrofuran-3-yl)-1H-pyrazol-4-yl)pyrazolo[1,5-a]pyridine-3-carboxamide]	8.70 to 9.70
